One experiment has as its system INS1. As to the kind of experiment: INS-1E survival protection against cytokine death – cell-based, luminescence, retest, dose response (AID 449756).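 Note: cell death triggered by IL-1 beta plus TNF-alpha plus IFN-gamma mixture; protective hits raise ATP signal compared with cytokine alone wells.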 As to conditions: Rattus norvegicus. The format is functional.
The target in experiment [1] is T1, CAAX prenyl protease 2 (Saccharomyces cerevisiae S288c, UniProt Q03530).
T1 sequence (Q03530 whole entry): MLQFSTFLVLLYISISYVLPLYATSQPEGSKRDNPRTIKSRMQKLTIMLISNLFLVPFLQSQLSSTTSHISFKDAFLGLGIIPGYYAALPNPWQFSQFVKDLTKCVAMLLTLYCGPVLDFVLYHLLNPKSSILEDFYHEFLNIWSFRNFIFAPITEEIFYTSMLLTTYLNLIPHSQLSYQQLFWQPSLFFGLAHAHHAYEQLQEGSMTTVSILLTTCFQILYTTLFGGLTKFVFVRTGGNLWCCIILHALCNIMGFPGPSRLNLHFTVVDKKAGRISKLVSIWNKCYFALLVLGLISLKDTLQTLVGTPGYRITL
As to the kind of experiment: inhibition of Rce1p peptide cleavage – biochemical, plate reader, dry powder retest, dose response (AID 588851).

Experiment [2] deals with T1, CAAX prenyl protease 2. The format is biochemical.
The target of experiment [3] is Disintegrin and metalloproteinase domain-containing protein 17 (Homo sapiens, UniProt P78536). As to the kind of experiment: exosite inhibitors of ADAM17, dose response, biochemical (AID 743260).
The subject of experiment [4] is HEK293. Put plainly: NOD2 signaling inhibitors in MDP-stimulated cells, cell-based, uHTS, luminescence (AID 2001). The format is functional. As to conditions: Homo sapiens.
In experiment [5] the test system is HEK293. Put plainly: cells. The format is functional, cell-based. Conditions: Homo sapiens.
Experiment [6] can be described thus: toxicity toward cultured mammalian cells – cell-based, plate reader, cherry-pick samples, cytotoxicity control, dose response (AID 504397). The format is functional.
In experiment [7] the test system is HEK293. As to the kind of experiment: inhibition of NOD1-driven NF-kB reporter – cell-based, luminescence, uHTS, primary screen (AID 1578). The format is functional. Conditions: Homo sapiens.
A short description of experiment [8]: inhibition of ADAM10 peptide cleavage – biochemical, FRET peptide substrate, recombinant human ADAM10, selectivity assay for ADAM17 exosite inhibitor project, dose response (AID 743259).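 Note: ADAM10 enzyme cleaving a FRET peptide substrate.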
Experiment [9] in a line: Luminescence Cell-Based Dose Retest to Confirm Inhibitors of Cancer Stem Cells. [Related pubchem assays (depositor defined):AID2717, AID2721]. The format is functional. Conditions: Homo sapiens.
In experiment [10] the test system is HEK293. Put plainly: cells. The format is functional, cell-based. Conditions: Homo sapiens. This is another data set of the same source.
Another experiment deals with Cytochrome P450 3A4 (Homo sapiens, UniProt P08684).
Experiment [11] is described as follows: cAMP pathway inhibition in counterscreen cell line – TR-FRET cAMP detection, counter-screen for MC4R biased antagonist project, dose response (AID 602305).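 Note: U2OS cells stimulated with forskolin near its EC80 as the cAMP inducer; potency is for inhibition of forskolin-stimulated cAMP signaling.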 The format is functional, cell-based.
For the next experiment, the target named is Melanocortin receptor 4 (Homo sapiens, UniProt P32245). Put plainly: inhibitors of MC4R cAMP signaling – cell-based, TR-FRET, biased antagonists, dose response (AID 602298).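 Note: antagonist potency against agonist-stimulated cAMP production.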 The format is functional.
For experiment [12], the target named is Protein disulfide-isomerase (Homo sapiens, UniProt P07237). As to the kind of experiment: inhibition of PDI-driven insulin aggregation – biochemical, turbidity, absorbance, cherry-picked samples, dose response (AID 602350). The format is functional.
Experiment [13] deals with T2, High affinity choline transporter 1 (Homo sapiens, UniProt Q9GZV3).
T2 sequence (Q9GZV3 whole entry): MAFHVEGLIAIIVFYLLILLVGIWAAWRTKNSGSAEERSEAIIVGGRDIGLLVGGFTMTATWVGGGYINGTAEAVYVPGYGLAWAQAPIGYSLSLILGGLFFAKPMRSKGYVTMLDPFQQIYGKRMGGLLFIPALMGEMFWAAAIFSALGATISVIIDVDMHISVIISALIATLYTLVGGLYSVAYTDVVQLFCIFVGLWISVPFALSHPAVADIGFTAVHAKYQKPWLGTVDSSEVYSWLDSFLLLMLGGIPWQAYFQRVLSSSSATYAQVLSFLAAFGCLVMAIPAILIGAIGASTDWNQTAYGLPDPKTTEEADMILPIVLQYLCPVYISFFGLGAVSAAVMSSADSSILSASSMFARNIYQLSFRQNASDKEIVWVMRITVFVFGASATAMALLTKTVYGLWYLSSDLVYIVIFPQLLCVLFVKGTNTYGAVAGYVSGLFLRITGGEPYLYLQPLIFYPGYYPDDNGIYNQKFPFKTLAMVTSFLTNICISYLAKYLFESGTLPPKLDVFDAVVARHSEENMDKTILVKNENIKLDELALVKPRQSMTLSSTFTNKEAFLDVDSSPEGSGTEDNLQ
As to the kind of experiment: human choline transporter potentiators, potency – cell-based, 10-point CRC, membrane potential dye, dose response (AID 602376). The format is functional.

The next experiment concerns the target Aurora kinase A (Homo sapiens, UniProt O14965). The format is functional.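 Note: value from the Navigating the Kinome kinase panel profiling, panel entry STK6.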
For another experiment, the target named is Aurora kinase B (Homo sapiens, UniProt Q96GD4). The format is functional.
Experiment [14] concerns the target Vascular endothelial growth factor receptor 2 (Homo sapiens, UniProt P35968). The format is functional.
The target of experiment [15] is Cyclin-dependent kinase 19 (Homo sapiens, UniProt Q9BWU1). As to the kind of experiment: Navigating the Kinome. Panel member name: CDC2L6. The format is functional.
In experiment [16] the target is Inhibitor of nuclear factor kappa-B kinase subunit epsilon (Homo sapiens, UniProt Q14164). As to the kind of experiment: Navigating the Kinome. Panel member name: IKBKE. The format is functional.
The target of experiment [17] is Melanin-concentrating hormone receptor 1 (Homo sapiens, UniProt Q99705). As to the kind of experiment: Late-stage fluorescence-based counterscreen for antagonists of the G-protein coupled receptor 7 (GPR7): cell-based dose response assay to identify antagonists of the melanin-concentrating hormone receptor 1 (MCHR1) Set 6. The format is functional.
Experiment [18] has as its target Neuropeptides B/W receptor type 1 (Homo sapiens, UniProt P48145). As to the kind of experiment: human NPBW1 receptor blockade, IC50 – cell-based, fluorescence, dose response, set 6, late-stage follow-up (AID 588583). The format is functional.
A short description of experiment [19]: blockers of bursicon-stimulated LGR2 cAMP reporter – cell-based, HEK293, CRE-luciferase reporter, cherry pick, set 2, dose response (AID 743343).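 Note: transfected cells were stimulated with diluted bursicon conditioned medium after compound addition.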 The format is functional.
A short description of a further experiment: cells. The format is functional, cell-based.
The nature of experiment [20]: blockade of melanocortin 4 receptor signaling – cell-based, plate reader, cherry pick, counter-screen for LGR2 antagonist project, dose response (AID 743444).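 Note: transfected HEK 293 cells stimulated with alpha-MSH peptide; potency of inhibitors of the alpha-MSH evoked signal.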 The format is functional.
In experiment [21] the target is T3, Nuclear receptor subfamily 0 group B member 1 (Homo sapiens, UniProt P51843).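 Note: HEK293T cells transfected with SF-1 and DAX-1 plus StAR promoter luciferase reporter.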
T3 sequence (P51843 whole entry): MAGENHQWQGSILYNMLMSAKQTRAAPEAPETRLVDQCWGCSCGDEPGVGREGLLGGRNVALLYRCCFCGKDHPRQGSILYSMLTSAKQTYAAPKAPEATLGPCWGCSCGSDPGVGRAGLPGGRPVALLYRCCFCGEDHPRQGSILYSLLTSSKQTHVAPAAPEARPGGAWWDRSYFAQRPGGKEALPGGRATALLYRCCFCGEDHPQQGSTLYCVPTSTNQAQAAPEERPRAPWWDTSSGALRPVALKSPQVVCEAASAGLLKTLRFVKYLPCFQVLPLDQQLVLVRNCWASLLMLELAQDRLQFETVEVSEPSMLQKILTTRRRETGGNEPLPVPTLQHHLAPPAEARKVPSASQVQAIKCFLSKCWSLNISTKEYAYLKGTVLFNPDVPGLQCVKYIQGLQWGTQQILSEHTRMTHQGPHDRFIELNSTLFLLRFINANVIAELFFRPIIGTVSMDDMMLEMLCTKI
The format is functional, cell-based.

Experiment [22] concerns HEK293. As to the kind of experiment: EBV LMP1 TES2 canonical NF-kB signalling blockers – cell-based, HEK293, luciferase, cherry-pick, dose response (AID 588343). The format is functional. Conditions: Homo sapiens.
The nature of experiment [23]: A549 cell cytotoxicity, dose response, cytotoxicity control, plate reader, cherry-pick, antagonist series (AID 743412). The format is functional, cell-based.
In experiment [24] the target is Latent membrane protein 1 (Human herpesvirus 4 (strain B95-8), UniProt P03230). Put plainly: LMP1 TES1 pathway selectivity over dsRED control – imaging, HEK293T, dual-color eGFP/dsRED, cherry-picks, selectivity assay for LMP1 NF-kB inhibitor project, dose response (AID 588398). The format is functional, cell-based.
Experiment [25] concerns the target T4, DNA dC->dU-editing enzyme APOBEC-3G (Homo sapiens, UniProt Q9HC16). As to the kind of experiment: SAR analysis of small molecule inhibitors of APOBEC3G DNA Deaminase via a fluorescence-based single-stranded DNA deaminase assay - Set 2. As to conditions: read-out: IC50_Mean. The format is functional.
Experiment [26] concerns the target T5, DNA dC->dU-editing enzyme APOBEC-3A (Homo sapiens, UniProt P31941). As to the kind of experiment: SAR analysis of small molecule inhibitors of APOBEC3A DNA Deaminase via a fluorescence-based single-stranded DNA deaminase assay - Set 2. The format is functional. Conditions: read-out: IC50_Mean.
For experiment [27], the target named is T4, DNA dC->dU-editing enzyme APOBEC-3G. Put plainly: inhibition of APOBEC3G ssDNA deamination – biochemical, fluorescence, single-stranded DNA substrate, SAR follow-up (AID 602136). The format is functional. Conditions: read-out: IC50_Mean.
For experiment [28], the target named is T5, DNA dC->dU-editing enzyme APOBEC-3A. Put plainly: SAR analysis of small molecule inhibitors of APOBEC3A DNA Deaminase via a fluorescence-based single-stranded DNA deaminase assay. As to conditions: read-out: IC50_Mean. The format is functional.

The source made the active and inactive calls.

T4 sequence (Q9HC16 whole entry): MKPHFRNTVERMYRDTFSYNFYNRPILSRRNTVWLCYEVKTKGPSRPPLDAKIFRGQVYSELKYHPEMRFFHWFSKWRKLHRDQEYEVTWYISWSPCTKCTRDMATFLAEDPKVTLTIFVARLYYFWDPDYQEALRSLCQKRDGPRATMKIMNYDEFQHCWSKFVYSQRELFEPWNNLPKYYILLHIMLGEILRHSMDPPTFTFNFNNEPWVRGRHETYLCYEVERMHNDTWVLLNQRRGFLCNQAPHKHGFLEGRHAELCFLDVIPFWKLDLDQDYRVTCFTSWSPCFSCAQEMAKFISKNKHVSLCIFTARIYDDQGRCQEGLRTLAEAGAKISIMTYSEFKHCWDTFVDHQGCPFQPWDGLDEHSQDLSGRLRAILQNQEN
T5 sequence (P31941 whole entry): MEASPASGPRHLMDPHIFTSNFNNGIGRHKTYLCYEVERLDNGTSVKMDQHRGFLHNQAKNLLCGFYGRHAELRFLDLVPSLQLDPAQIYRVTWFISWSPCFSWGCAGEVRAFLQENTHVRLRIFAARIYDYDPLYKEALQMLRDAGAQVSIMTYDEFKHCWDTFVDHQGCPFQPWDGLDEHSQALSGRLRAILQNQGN
Latent membrane protein 1, sequence (P03230 whole entry): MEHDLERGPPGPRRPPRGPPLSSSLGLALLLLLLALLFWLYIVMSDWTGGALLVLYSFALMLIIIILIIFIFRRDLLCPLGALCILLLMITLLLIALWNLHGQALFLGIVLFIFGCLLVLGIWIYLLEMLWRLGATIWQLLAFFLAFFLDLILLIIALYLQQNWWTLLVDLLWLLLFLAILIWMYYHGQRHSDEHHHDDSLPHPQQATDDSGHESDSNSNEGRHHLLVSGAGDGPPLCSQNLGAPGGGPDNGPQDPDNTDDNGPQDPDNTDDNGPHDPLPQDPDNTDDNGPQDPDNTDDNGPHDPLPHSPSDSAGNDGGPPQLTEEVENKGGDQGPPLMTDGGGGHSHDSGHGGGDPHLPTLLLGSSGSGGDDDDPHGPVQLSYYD
Disintegrin and metalloproteinase domain-containing protein 17, sequence (P78536 whole entry, the tested form may be a part): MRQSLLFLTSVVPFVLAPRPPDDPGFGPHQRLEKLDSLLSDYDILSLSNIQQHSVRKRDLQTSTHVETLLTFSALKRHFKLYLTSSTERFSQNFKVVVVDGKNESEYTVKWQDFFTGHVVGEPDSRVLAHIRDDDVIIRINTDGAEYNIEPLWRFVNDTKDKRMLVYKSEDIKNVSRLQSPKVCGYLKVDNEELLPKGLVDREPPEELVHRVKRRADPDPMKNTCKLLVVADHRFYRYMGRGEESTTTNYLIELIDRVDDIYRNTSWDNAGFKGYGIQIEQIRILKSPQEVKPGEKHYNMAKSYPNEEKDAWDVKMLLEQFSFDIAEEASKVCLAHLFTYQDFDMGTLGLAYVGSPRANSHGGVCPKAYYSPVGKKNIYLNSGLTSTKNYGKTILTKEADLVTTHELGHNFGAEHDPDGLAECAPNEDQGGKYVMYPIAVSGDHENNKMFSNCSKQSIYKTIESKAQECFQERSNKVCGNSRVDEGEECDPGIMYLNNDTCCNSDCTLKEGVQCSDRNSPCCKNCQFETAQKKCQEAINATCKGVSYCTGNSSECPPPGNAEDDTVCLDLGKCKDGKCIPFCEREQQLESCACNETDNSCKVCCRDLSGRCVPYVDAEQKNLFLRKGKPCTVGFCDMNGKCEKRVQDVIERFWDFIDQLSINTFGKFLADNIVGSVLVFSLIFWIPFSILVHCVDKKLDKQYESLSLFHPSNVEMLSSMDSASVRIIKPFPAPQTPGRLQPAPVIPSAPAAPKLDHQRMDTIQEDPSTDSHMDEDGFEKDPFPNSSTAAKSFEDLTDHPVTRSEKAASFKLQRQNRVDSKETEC
Aurora kinase B, sequence (Q96GD4 whole entry): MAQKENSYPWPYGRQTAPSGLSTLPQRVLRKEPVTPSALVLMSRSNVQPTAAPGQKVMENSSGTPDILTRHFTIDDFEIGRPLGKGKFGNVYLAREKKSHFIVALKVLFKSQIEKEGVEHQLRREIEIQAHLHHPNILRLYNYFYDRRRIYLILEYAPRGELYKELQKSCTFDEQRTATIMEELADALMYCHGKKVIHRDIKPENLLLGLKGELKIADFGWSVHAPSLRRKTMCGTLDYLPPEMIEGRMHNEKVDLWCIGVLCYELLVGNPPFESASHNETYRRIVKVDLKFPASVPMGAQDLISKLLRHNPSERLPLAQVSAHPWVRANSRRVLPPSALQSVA
Protein disulfide-isomerase, sequence (P07237 whole entry): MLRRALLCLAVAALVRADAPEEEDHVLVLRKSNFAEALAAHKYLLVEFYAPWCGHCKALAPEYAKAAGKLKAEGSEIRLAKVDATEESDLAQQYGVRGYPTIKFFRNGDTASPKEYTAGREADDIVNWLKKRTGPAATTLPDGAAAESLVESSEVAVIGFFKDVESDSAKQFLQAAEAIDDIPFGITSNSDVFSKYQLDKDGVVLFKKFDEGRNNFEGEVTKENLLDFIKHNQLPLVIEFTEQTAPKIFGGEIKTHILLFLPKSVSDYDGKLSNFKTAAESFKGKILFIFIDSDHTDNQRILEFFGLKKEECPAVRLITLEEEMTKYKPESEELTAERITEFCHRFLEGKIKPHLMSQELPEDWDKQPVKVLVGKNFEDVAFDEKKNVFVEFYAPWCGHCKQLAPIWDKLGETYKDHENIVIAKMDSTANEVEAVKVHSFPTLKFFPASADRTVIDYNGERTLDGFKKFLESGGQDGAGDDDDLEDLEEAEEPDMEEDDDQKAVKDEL
Melanocortin receptor 4, sequence (P32245 whole entry): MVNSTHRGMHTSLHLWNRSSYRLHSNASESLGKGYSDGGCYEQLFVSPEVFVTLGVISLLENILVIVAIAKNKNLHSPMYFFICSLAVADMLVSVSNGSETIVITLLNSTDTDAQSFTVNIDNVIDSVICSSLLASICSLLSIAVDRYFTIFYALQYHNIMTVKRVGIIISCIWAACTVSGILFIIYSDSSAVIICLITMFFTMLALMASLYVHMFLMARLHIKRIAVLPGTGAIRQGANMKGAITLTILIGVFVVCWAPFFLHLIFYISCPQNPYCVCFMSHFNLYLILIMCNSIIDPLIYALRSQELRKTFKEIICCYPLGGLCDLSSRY
Cytochrome P450 3A4, sequence (P08684 whole entry): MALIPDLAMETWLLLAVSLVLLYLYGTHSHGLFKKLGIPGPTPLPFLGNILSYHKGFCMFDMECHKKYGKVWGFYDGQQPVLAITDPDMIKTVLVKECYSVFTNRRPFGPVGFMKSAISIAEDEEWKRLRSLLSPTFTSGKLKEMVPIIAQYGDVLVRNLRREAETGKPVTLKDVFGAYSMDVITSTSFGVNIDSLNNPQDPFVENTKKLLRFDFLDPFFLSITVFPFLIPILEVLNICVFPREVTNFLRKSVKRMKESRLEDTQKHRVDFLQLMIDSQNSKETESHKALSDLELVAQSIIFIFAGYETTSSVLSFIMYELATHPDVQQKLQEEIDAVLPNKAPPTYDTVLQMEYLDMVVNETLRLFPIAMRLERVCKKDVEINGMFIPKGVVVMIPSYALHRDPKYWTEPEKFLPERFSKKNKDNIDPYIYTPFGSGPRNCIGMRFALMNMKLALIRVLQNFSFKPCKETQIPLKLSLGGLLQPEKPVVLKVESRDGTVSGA
Inhibitor of nuclear factor kappa-B kinase subunit epsilon, sequence (Q14164 whole entry): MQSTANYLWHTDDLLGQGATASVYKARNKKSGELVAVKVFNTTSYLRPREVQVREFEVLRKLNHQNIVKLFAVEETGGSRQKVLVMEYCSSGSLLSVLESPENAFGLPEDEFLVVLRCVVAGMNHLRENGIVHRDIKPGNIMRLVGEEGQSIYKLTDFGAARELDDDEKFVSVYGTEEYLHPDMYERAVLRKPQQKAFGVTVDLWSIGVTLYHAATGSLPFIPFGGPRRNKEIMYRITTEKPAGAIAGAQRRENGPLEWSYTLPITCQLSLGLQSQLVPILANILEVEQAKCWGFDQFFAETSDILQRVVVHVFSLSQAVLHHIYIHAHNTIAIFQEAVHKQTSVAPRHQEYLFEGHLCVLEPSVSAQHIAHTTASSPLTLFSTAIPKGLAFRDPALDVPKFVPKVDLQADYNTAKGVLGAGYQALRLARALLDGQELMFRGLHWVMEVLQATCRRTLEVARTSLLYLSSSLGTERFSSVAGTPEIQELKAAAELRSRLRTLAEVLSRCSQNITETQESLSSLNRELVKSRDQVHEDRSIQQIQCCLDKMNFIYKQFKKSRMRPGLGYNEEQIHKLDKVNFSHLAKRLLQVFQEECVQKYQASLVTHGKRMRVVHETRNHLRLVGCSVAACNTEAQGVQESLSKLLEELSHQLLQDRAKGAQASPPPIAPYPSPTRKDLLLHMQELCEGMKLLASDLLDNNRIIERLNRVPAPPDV
Cyclin-dependent kinase 19, sequence (Q9BWU1 whole entry): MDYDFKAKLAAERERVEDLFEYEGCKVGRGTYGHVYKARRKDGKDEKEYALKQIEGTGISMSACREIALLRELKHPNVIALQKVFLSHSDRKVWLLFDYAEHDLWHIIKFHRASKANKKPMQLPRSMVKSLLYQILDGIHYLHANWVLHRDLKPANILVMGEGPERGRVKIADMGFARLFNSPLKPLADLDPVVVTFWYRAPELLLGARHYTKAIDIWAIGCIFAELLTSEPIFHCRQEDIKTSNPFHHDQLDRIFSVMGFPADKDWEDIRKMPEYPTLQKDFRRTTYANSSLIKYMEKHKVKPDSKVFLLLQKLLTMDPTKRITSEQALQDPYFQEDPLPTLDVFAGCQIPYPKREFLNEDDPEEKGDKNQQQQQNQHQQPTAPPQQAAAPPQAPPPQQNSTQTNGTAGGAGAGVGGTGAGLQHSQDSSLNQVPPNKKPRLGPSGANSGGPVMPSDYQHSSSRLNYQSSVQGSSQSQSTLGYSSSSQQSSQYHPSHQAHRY

Turning to `Cc1cc(C)n(Cc2ccc(NC(=O)c3ccc(COc4ccccc4Br)cc3)cc2)n1`, the AC50 in the experiment with INS1 is 8.58 µM (active); on CAAX prenyl protease 2 [1], 9.4 µM (active); on CAAX prenyl protease 2 [2] it was 1.08 µM (active); in [6], 48.8 µM (active); in [9], 1.56 µM (active); at Cytochrome P450 3A4 it was 14.1 µM (inconclusive). In addition, the IC50 in [3] is > 69.5 µM (inactive); with HEK293 [4], 4.26 µM (active); with HEK293 [5], 13.2 µM (active); in experiment [8], > 69.5 µM (inactive); in the experiment on HEK293 [10] it was 4.34 µM (active). In addition, the EC50 in the experiment with HEK293 [7] was 8.42 µM (active).
On to `Cc1nc2c(sc3nc(N4CCOCC4)c4c(c32)CC(C)(C)OC4)c(-c2ccccc2)c1C(=O)O`, for which the IC50 in experiment [11] was > 64.6 µM (inactive); on Melanocortin receptor 4, 15.5 µM (inactive). In addition, the AC50 in experiment [9] was 0.324 µM (active).
As to `CN(C)S(=O)(=O)c1ccc(Cl)c(NC(=O)CSc2nnnn2-c2ccc(O)cc2)c1`, in experiment [12], the AC50 is 19.5 µM (active).
Turning to `CCOC(=O)c1sc(NC(=O)Cc2ccccc2OC)nc1C`, the EC50 in experiment [13] was 22.4 µM (active).
`Cn1c(SC(C(=O)O)c2ccccc2)nc2ccccc2c1=O` (stereo not given): the results for the Ki (on Aurora kinase A; on Aurora kinase B; in experiment [14]) were > 2 µM (inactive), 0.0794 µM (active) and > 5.01 µM (inactive), respectively.
In the case of `Nc1noc2c(CN3CCOCC3)ccc(-c3ccc(NC(=O)Nc4cc(C(F)(F)F)ccc4F)cc3)c12`, the Ki in [15] is > 100 µM (inactive); in [16] it was 1 µM (active).
On to `N#CC(C(=O)N1CCCC1)c1c(Cl)cnn(Cc2cccc3ccccc23)c1=O` (stereo not given), for which the IC50 in experiment [17] and in [18] was 0.915 µM (active) in each case.
As for `c1ccc(-c2cn3c4c(sc3n2)CCCC4)cc1`, the AC50 in experiment [19] was 2.72 µM (active); in experiment [20], 4.25 µM (active); with HEK293 [22], 1.92 µM (active); in experiment [23], 41.1 µM (active); in experiment [24] it was 31.6 µM (active). In addition, the IC50 (in “cells”; in experiment [21]) was > 67.6 µM (inactive) in each case.
As for `Cc1cc(C)n2nc(C(=O)NCc3ccccc3)c(Br)c2n1`, the results for the IC50 in experiment [25] and in [26] were > 99 µM (inactive) and 76.8 µM (inactive), respectively.
With `COc1ccc(-c2nnc(SC(C)C(=O)Nc3nc(-c4ccc(F)c(F)c4)cs3)[nH]2)cc1` (stereo not given), the results for the IC50 in [27] and in experiment [28] were 40.5 µM (inactive) and > 99 µM (inactive), respectively.

Source of the values: ChEMBL document CHEMBL1201862, “PubChem BioAssay data set” (2004).
